Entries after “also recorded” stand apart in the source; their conditions may differ. Like-named read-outs stand apart in the source and are kept apart here.
Tests used:
[1] = biological target: T1, SAT from Salmonella enterica serovar Typhimurium (Salmonella typhimurium, UniProt P29847); assay: StSAT enzyme activity assay (spectrophotometric indirect assay with Ellman's reagent); type: biochemical; details: for inhibition at 1000 µM: compound at fixed 1 mM, both substrates equal to Km, 5% DMSO
T1 construct: trxA (thioredoxin) fusion; made in house
T1 sequence (P29847 whole entry, the tested form may be a part): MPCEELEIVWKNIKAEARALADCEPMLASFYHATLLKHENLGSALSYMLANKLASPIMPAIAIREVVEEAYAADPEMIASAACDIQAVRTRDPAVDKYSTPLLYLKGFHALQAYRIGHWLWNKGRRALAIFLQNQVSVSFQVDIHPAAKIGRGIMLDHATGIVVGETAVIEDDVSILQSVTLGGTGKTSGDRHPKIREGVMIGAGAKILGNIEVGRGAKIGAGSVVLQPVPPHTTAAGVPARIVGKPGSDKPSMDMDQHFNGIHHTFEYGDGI
Protocol: Since the primary structure of SAT is highly conserved among bacteria, [38] the virtual screening of our in-house library was performed using the available crystal structures of EcSAT (pdb code: 1T3D) and HiSAT (pdb code: 1SSM), setting the experimental parameters as previously reported by us. After this preliminary analysis, a total of 7 compounds were identified and selected to be evaluated on the recombinant enzyme from S. typhimurium. The enzyme used in these assays has a Km,Ser = 1.07 ± 0.15 mM, a Km,AcCoA = 0.17 ± 0.04 mM, kcat = 3813 ± 169 min^−1 [37].
SAT from Salmonella enterica serovar Typhimurium was expressed as trxA fusion protein as previously described and was more than 95% pure based on SDS-PAGE analysis. The enzyme activity was measured by a spectrophotometric indirect assay that exploits the signal at 412 nm generated by 5,5’-Dithiobis(2-nitrobenzoic acid (Ellmn’s reagent) reduction by the reaction product coenzyme A [37]. A total of 5% DMSO was present in all the assays and was proven not to perturb enzyme activity (data not shown). The concentration of substrates was set equal to Km in order to improve the sensitivity of the assay for both competitive and uncompetitive mechanism of inhibition. The dependence of the relative reaction rate on the concentration of compounds was fitted to Equation (1) to calculate the IC50: vi/v0=1/1+[I]/IC50
The inhibition mechanism was determined by fitting the dependence of the initial reaction rate on the concentration of acetyl CoA (at fixed, 1 mM L-Ser concentration) in the presence of different concentrations of inhibitor ( 1/3IC50≥[inhibitor]≤3IC50 ) to the equation for competitive, uncompetitive and non-competitive mechanisms. The equation that fits a competitive mechanism (Equation (2)) was used to calculate Ki for compound 5: v0=Vmax·[acetyl−CoA]/[acetyl−CoA]+(Km·α) where α=1+([comp5]/Ki) .

[2] = Chemical stability in DMSO solution by 1H NMR at different time points; type: physicochemical; details: 5 mg in 500 μL DMSO-d6, room temperature
Protocol: Upon noticing changes in the appearance of the DMSO solution over time at room temperature, we deemed it of interest to investigate the chemical stability of the compounds. Therefore, in order to evaluate it, ^1H NMR analysis at different time points (1 h, 2.5 h, and 20 h) of the DMSO solution (5 mg in 500 μL of DMSO-d6) was performed (Supporting Information). Since the time required to observe changes in the colour of the solution was dependent of the substituent at position R2 of series 22, to establish the effect of the substituent on the overall stability of the compound, analogue 22a (R2 = phenyl) which contains the non-substituted phenyl group, analogue 22b (R2 = 3,5-dichlorophenyl), substituted with an EWG and analogue 22d (R2 = 3,5-dimethylphenyl) substituted with an electron donating group (EDG) were selected to perform the chemical stability studies. The stability of the compounds increases in the following order: 22b (stability in DMSO < 2.5 h) < 22a (stability in DMSO < 20 h) < 22d (stability in DMSO < 7 days). Thus, it is possible to conclude that EWGs like the simple phenyl or the phenyl replaced with two chlorines produce fewer stable molecules. On the other hand, the phenyl replaced with EDGs contributes to the overall stability of the molecule. It is hypothesised that the mild oxidative properties of DMSO are able to interfere with the oxazole scaffold, which leads to the opening of the ring and then full degradation of the compound in study.

S. Typhimurium ATCC14028 = assay: Minimal Inhibitory Concentration (MIC) assay; type: cell-based
E. coli ATCC25922 = assay: Minimal Inhibitory Concentration (MIC) assay; type: cell-based; details: Escherichia coli; E. coli ATCC25922, Mueller Hinton broth (MHB)
M. tuberculosis = test system: M. tuberculosis; design: method as in PMID 28749666; details: cited from earlier work
StOASS = test system: StOASS; design: method as in PMID 26894308; details: cited from earlier work
[3] = Table 3, synthesised compounds, read-out: StSAT IC50
[4] = StSAT IC50, Table 3, synthesised compounds
[5] = Table 2, analogues of compound 5, * = estimated due to solubility issues, read-out: IC50
[6] = values as quoted in the SAR discussion text, read-out: IC50

With O=C(O)c1cc(-c2coc(Nc3ccncc3)n2)on1 [Compound 22e, 5-(2-(pyridin-4-ylamino)oxazol-4-yl)isoxazole-3-carboxylic acid] the IC50 [1, 3] was 0.012 ± 0.00125 mM.

In the case of CC1CN(C(=O)c2cc3ccccc3[nH]2)CC(C)N1 (centres unmarked) [Compound 3], the inhibition at 1000 µM [1] is reported as 31.4 ± 5%.

With O=C(O)c1cc(-c2coc(Nc3ccccc3)n2)on1 [Compound 22a, 5-(2-(phenylamino)oxazol-4-yl)isoxazole-3-carboxylic acid] the IC50 [1, 4] was 0.00154 ± 0.00033 mM and the “stability in DMSO” value [2] was less than 20 h.

CCOC(=O)c1cc(-c2csc(Nc3cc(Cl)cc(Cl)c3)n2)on1 [Compound 15] showed an IC50 [1, 5] of 0.018 ± 0.002 mM.

With Cc1cc(C)cc(Nc2nc(-c3cc(C(=O)O)no3)co2)c1 [Compound 22d, 5-(2-((3,5-dimethylphenyl)amino)oxazol-4-yl)isoxazole-3-carboxylic acid] the IC50 [1, 3] was 0.00424 ± 0.00011 mM, the MIC (S. Typhimurium ATCC14028; S. Typhimurium ATCC14028, M9 medium deprived of cysteine) was greater than 128 µM and the MIC (S. Typhimurium ATCC14028; Salmonella enterica, S. Typhimurium ATCC14028, Mueller Hinton broth (MHB)) was greater than 128 µM. For the same compound, the “stability in DMSO” value [2] was less than 170 h and the MIC (E. coli ATCC25922) was greater than 128 µM.

In the case of CCOC(=O)c1cc(-c2coc(Nc3ccncc3)n2)on1 [Compound 21e, Ethyl 5-(2-(pyridin-4-ylamino)oxazol-4-yl)isoxazole-3-carboxylate], the IC50 [1, 3] is reported as 0.00395 ± 0.00065 mM.

Cc1ccc(Nc2nc(-c3cc(C(N)=O)no3)cs2)cc1 [Compound 11] gave an IC50 [1, 5] of 0.026 ± 0.004 mM.

Compound CCOC(=O)c1cc(-c2coc(Nc3ccc(C)cc3)n2)on1 [Compound 19] has an IC50 [1, 5] of 0.007 ± 0.002 mM and an IC50 [1, 6] of 0.0073 mM.

CC(=O)NC(C(=O)O)C(=O)O [Compound 4] showed an inhibition at 1000 µM [1] of 18.7 ± 6%.

Cc1ccc(Nc2nc(-c3cc(C(=O)O)nn3C)cs2)cc1 [Compound 16] showed an IC50 [1, 5] of 0.184 ± 0.013 mM.

With O=C(O)c1cc(-c2csc(Nc3cc(Cl)cc(Cl)c3)n2)on1 [Compound 20] the IC50 [1, 5] was 0.011 ± 0.001 mM.

Cc1ccc(Nc2nc(-c3ccncc3)cs2)cc1 [Compound 8] showed an IC50 [1, 5] greater than 0.4 mM.

In the case of Cc1ccc(Nc2nc(-c3cc(C(=O)NC45CC6CC(CC(C6)C4)C5)no3)cs2)cc1 [Compound 10], the IC50 [1, 5] is reported as 0.009 ± 0.003 mM.

For O=C(O)c1cc(-c2coc(Nc3ccc(F)cc3)n2)on1 [Compound 22c, 5-(2-((4-fluorophenyl)amino)oxazol-4-yl)isoxazole-3-carboxylic acid], the IC50 [1, 3] was 0.00251 ± 0.00034 mM.

With Cc1ccc(Nc2nc(-c3cc(C(=O)O)no3)co2)cc1 [Compound 18] the “improvement in the affinity compared to the 2-aminothiazole counterpart” value ([1]; 18 vs. 5, from IC50) was greater than 40 fold and the IC50 [1, 6] was 0.0026 mM.

With CCOC(=O)c1cc(-c2coc(Nc3ccc(F)cc3)n2)on1 [Compound 21c, Ethyl 5-(2-((4-fluorophenyl)amino)oxazol-4-yl)isoxazole-3-carboxylate] the IC50 [1, 3] was 0.00304 ± 0.00037 mM.

Work on COc1ccc(-c2cc(-c3csc(Nc4ccc(C)cc4)n3)on2)cc1 [Compound 9] yielded an IC50 [1, 5] of 0.012 ± 0.002 mM.

CNC(=O)c1cc(-c2csc(Nc3ccc(C)cc3)n2)on1 [Compound 12] showed an IC50 [1, 6] of 0.06 mM.

Compound O=C(O)C1C2C=CC(C2)C1C(=O)O (centres unmarked) [Compound 2] has an inhibition at 1000 µM [1] of 34.9 ± 6%.

Compound CCOC(=O)c1cc(-c2csc(Nc3ccc(C)cc3)n2)on1 [Compound 14] has an IC50 [1, 5] of roughly 0.01 mM and an IC50 [1, 6] of 0.01 mM.

Cc1ccc(C(=O)O)c(N)n1 [Compound 1] gave an inhibition at 1000 µM [1] of 19.4 ± 1%.

With Cc1ccc(Nc2nc(-c3cc(C(=O)O)no3)cs2)cc1 [Compound 5] the IC50 ([1]; Table 1, virtual screening hits, substrates equal to Km, read-out: IC50) was 0.11 mM, the Ki ([1]; competitive towards acetyl-CoA, fixed 1 mM L-Ser) was 64 ± 12 µM and the Mechanism ([1]; inhibition mechanism, varied acetyl CoA at fixed 1 mM L-Ser) was “competitive inhibitor; also recorded: Competitive with AcCoA”. For the same compound, the “activity toward M. tuberculosis” value (M. tuberculosis) was “inactive”.

In the case of O=C(O)c1cc(-c2coc(Nc3cc(Cl)cc(Cl)c3)n2)on1 [Compound 22b, 5-(2-((3,5-dichlorophenyl)amino)oxazol-4-yl)isoxazole-3-carboxylic acid], the IC50 [1, 4] is reported as 0.00803 ± 0.00018 mM and the “stability in DMSO” value [2] is reported as less than 2.5 h.

CCOC(=O)c1cc(-c2coc(Nc3ccccc3)n2)on1 [Compound 21a, Ethyl 5-(2-(phenylamino)oxazol-4-yl)isoxazole-3-carboxylate] gave an IC50 [1, 3] of 0.00268 ± 0.00027 mM.

With Cc1ccc(Nc2nc(-c3cc(C(=O)Nc4ccccc4)no3)cs2)cc1 [Compound 13] the IC50 [1, 5] was 0.016 ± 0.003 mM and the IC50 [1, 6] was 0.0163 mM.

Work on CCOC(=O)c1cc(-c2coc(Nc3cc(Cl)cc(Cl)c3)n2)on1 [Compound 21b, Ethyl 5-(2-((3,5-dichlorophenyl)amino)oxazol-4-yl)isoxazole-3-carboxylate] yielded an IC50 [1, 3] of 0.00252 ± 3e-05 mM.

With Cn1nc(C(=O)O)cc1-c1csc(Nc2cc(Cl)cc(Cl)c2)n1 [Compound 17] the IC50 [1, 5] was 0.021 ± 0.005 mM.

In the case of Cc1ccc(CC2(C(=O)O)CC2c2ccccc2)cc1 (centres unmarked) [UPAR415], the “mechanism of OASS inhibition” value (StOASS) is listed as “competitive inhibitor”.

O=C(O)[C@H]1C[C@@H]1c1ccccc1 [Compound 7] showed an inhibition at 1000 µM [1] greater than 40% and an IC50 ([1]; virtual screening hit, value printed in mM (μM), read-out: IC50) greater than 2 mM.

CCn1c2ccccc2c2cc(CNC)ccc21 [Compound 6] showed an inhibition at 1000 µM [1] of 23.6%.
